Results as given in patent publication US12697316B2, “Combination therapy with acetyl-leucine and miglustat” (INTRABIO LTD., priority 2019, dated 2026).

What was measured:
[1] = system: Npc1^−/− Chinese Hamster Ovary (CHO) cells; assay: Lysotracker Green relative lysosomal volume (FACS) in NPC1 null CHO cells; format: cell-based; details: 1 mM
Description: Wild type and NPC1 null Chinese Hamster Ovary (CHO) cells were kindly provided by Chris Wassif (NIH).
(§1) ADLL and enantiomers (ADLL: Molekula #73891210, ALL: Sigma Aldrich #441511, ADL: Sigma #A0876) were administered as dry admix in powdered mouse diet (PicoLab Rodent Diet 20/5053, LabDiet) at a dose of 0.1 g/kg/day for in vivo studies. Treatment groups for in vivo study consisted of at least 5 mice per group. In vitro studies were conducted with each compound dissolved in PBS to generate a 50 mM stock solution and diluted to a 1 mM working concentration in media (DMEM High Glucose-Gibco #10566016).
Lysotracker Green and Propidium Iodide Staining of CHO cells: In vitro FACS experiments were performed in order to measure relative acidic compartment volume staining live cells with LysoTracker™ Green DND-26 (Thermo Fisher-L7526) at 250 nM for 10 minutes in PBS at RT, centrifuged at 1200 rpm for 10 min and cells resuspended in FACS buffer (PBS, 1% BSA, 0.1% NaN3 sodium azide). Cells were stained with propidium iodide (20 nM) (Invitrogen-P3566) immediately prior to analysis on the FACS for dead cell discrimination. FACS analysis was performed on 10,000 recorded cells using FACS Canto (Becton Dickinson, (BD)) with BD software.

Npc1^−/− mice [2] = assay: Cerebellar immunohistochemistry (Purkinje cells, CD68 microglia) in Npc1−/− mice; format: in vivo, mouse; details: for reduction of frequency of CD68 positive activated microglia: cerebellum; for reduction of frequency of CD68 positive activated microglia / Purkinje cell survival in any cerebellar lobules: compared to Npc1−/− UT
Description: as §1
(§2) Biochemical and immunohistochemical analyses. Mice were saline perfused under terminal anaesthesia. Tissues for biochemical analysis were snap-frozen on ice-cold isopentane. For immunofluorescent staining, tissues were perfused with 4% PFA followed by PBS and kept in 4% PFA for 24h and stored in PBS containing 20% sucrose longer term. Brains were cut parasagitally (20 micron sections) and stored in 30% ethylene glycol, 30% glycerol 0.1 M sodium phosphate buffer (pH 7.4) at −20° C. Biochemical analysis was performed on water-homogenised tissues (50 mg/ml) and protein content was determined using a BCA protein assay (Thermo Fisher #23227) according to the manufacturer's instructions.
Immunohistochemistry: Free-floating brain sections in glycerol/ethylene were rinsed 3 times with PBS and blocked with 2% goat serum in 0.3% PBS Triton at room temperature. Sections were stained with primary antibodies; rabbit Calbindin (1:2000) and rat CD68 (1:500) in 2% goat serum in 0.3% PBS for 16 hours at 4° C., followed by washing with 0.3% PBS Triton, then 3 times with PBS. Secondary antibody staining (Alexa Fluor 597 Goat anti rabbit Far Red, Alexa Fluor 488 Goat anti rat) was conducted at room temperature for 2 hours. Samples were washed once with 0.3% PBS Triton, 3 times with PBS and manually mounted on slides. Slides left on the bench overnight to dry the sections followed by application of ProLong Gold (Invitrogen, #P36930).
Image Acquisition and Quantification: Brain sections and CHO cells imaging was performed with a Leica-SP8 confocal microscope in tile imaging mode. Western blot data acquisition was conducted with LiCOR Odyssey Infrared Imaging system model no 9120. Mean fluorescence values, cerebellum diameters and areas, cell quantifications were calculated with Fuji Version 1.0 software.

Npc1^−/− mice [3] = assay: Lipid storage (GSLs, sphingoid bases, cholesterol) in liver of Npc1−/− mice; format: in vivo, mouse; parameters: reduction of liver GSL levels (total) / reduction of GM2Gc in liver / reduction of sphingosine in liver / reduction of sphinganine in liver / reduction of GM3Gc in liver: concentration or dose not given beside the values; details: 59 days of age
Description: as §1, §2
Sphingoid Base Measurements: Sphingoid bases (sphingosine and sphinganine) were extracted from 100 uL tissue homogenates in 500 uL of chloroform:methanol (1:2v/v) followed by sonication for 10 minutes at room temperature. Subsequently, 1 M 500-uL sodium chloride, 500 uL chloroform, and 3 M 100 uL sodium hydroxide were added to the samples, and vortexed every five minutes for 15 minutes at room temperature. Homogenates were centrifuged (13,000 g for 10 minutes) and the lower organic phase retained. Sphingoid bases were purified from the samples by pre-equilibrating SPA-NH2 columns with 2×1 mL chloroform followed by sample elution with 3×300 ul acetone. The samples were dried under nitrogen. Lipids were resuspended in 50 uL pre-warmed ethanol (37° C.) and 50 uL OPA labelling solution (1 mg OPA/20 uL Ethanol/1 uL 2-mercaptoethanol; dilution 1:2000 in 3% boric acid pH 10.5) was added. Samples were kept at room temperature in the dark for 20 minutes and vortexed every 10 minutes. Samples were buffered with 100 uL methanol: 5 mM Tris pH 7 (9:1) and centrifuged at 5,000 g for 2 minutes. Supernatants (150 uL) were loaded onto a reverse phase HPLC. Chromatography was carried out using a mobile phase of 85% acetonitrile/15% H2O at a flow rate of 1.0 ml/min. The orthophthaldehyde-labelled derivatives were monitored at an excitation wavelength of 340 nm and an emission wavelength of 450 nm. Quantification of trace peak area was carried out using EZChrom Elite software v3.2.1.
Glycosphingolipid measurements: Glycosphingolipids were extracted and measured by NP-HPLC according to published methods. Tissue homogenates in chloroform/methanol (C:M) (1:2 v/v) overnight at 4° C. The mixture was centrifuged (3000 rpm/10 min) and 1 mL chloroform and 1 mL PBS were added to the supernatant and centrifuged (3000 rpm/10 min). The lower phase was dried under N2, resuspended in 50 uL C:M 1:3 v/v and combined with the upper phase. Subsequently, GSLs were recovered using C18 Isolute columns (100 mg) (Biotage) pre-equilibrated with 4×1 mL MeOH and 2×1 mL H2O. Samples were washed 3×1 mL H2O and eluted with 1 mL C:M 98:2, 2×1 mL C:M 1:3, 1 mL MeOH. The column eluate was dried under N2, resuspended in 100 uL C:M 2:1, dried again under N2 and resuspended in ceramide glycanase (CGase) buffer (50 mM sodium acetate pH 5.5, 1 mg/mL sodium taurodeoxycholate). 50 mU CGase was added, and samples incubated at 37° C. overnight. Released oligosaccharides were anthranilic acid (2-AA) labelled and purified by mixing with 1 mL Acetonitrile: H2O 97:3 and added to Discovery DPA-6S columns (SUPELCO, # 52625-U) pre-equilibrated with 1 mL acetonitrile, 2×1 mL H2O, and 2×1 mL acetonitrile. Columns were washed with 2×1 mL Acetonitrile: H2O 95:5 v/v, and eluted in 2×0.75 mL H2O. […]

[4] = 59 days of age, relative to untreated Npc1−/− littermates

Row | Compound | reduction of relative lysosomal volume ([1]; 24 h) [%] | reduction of relative lysosomal volume ([1]; 72 h) [%] | more Purkinje cells in lobule III (Npc1^−/− mice [2]; [4]) [%] | more Purkinje cells in lobules I and II (Npc1^−/− mice [2]; [4]) [%] | reduction of frequency of CD68 positive activated microglia (Npc1^−/− mice [2]; 59 days of age) | decrease of total free cholesterol in liver (Npc1^−/− mice [3]) [%] | reduction of sphinganine in liver (Npc1^−/− mice [3]) [%] | reduction of sphingosine in liver (Npc1^−/− mice [3]) [%] | reduction of GM2Gc in liver (Npc1^−/− mice [3]; vs untreated Npc1−/−) [%] | reduction of liver GSL levels (total) (Npc1^−/− mice [3]; vs untreated Npc1−/−) [%] | Purkinje cell survival in any cerebellar lobules (Npc1^−/− mice [2]; 59 days of age) | long term neuroprotective effects (Npc1^−/− mice [2]; Npc1−/− mice) | reduction of GM3Gc in liver (Npc1^−/− mice [3]; vs untreated Npc1−/−) [%]
1 | CC(=O)NC(CC(C)C)C(=O)O (racemic) [ADLL, N-acetyl-DL-leucine] | 16.9 | 24 | 402 | 133 | did not have a significant impact | 18.2 | 32.5 | 29.5 | 26.7 | 26.9 | – | – | –
2 | CC(=O)N[C@H](CC(C)C)C(=O)O [ADL, N-acetyl-D-leucine] | – | 22.3 | – | – | did not have a significant impact | 16.2 | 38.5 | 33.6 | 29 | 26.9 | did not significantly improve | did not mediate any long term, neuroprotective effects | –
3 | CC(=O)N[C@@H](CC(C)C)C(=O)O [ALL, N-acetyl-L-leucine] | 16 | 22.8 | – | – | 20% | 23.4 | 37.4 | 33.2 | 45 | 45.6 | did not significantly improve | – | 54.8
